From the NIST ThermoML archive (doi:10.1021/acs.jced.7b00099)
Several values for one entry are separate records, joined by “and”; a condition that tells them apart may be missing. Equal values may be shown once. Numbers after ± are expanded uncertainties.

Settings: Liquid, Closed cell (Static) method

CCCCCCCCCCCC(=O)OC [methyl dodecanoate]
Settings | vapor or sublimation pressure [kPa]
353.15 K | 0.0644 ± 0.0024
363.15 K | 0.1217 ± 0.0043
373.15 K | 0.2212 ± 0.0072
383.15 K | 0.388 ± 0.012
393.15 K | 0.657 ± 0.009
403.15 K | 1.08 ± 0.014
413.15 K | 1.728 ± 0.011
423.15 K | 2.694 ± 0.015
433.15 K | 4.104 ± 0.019

CCCCCCCCCCCCCCCC(=O)OC [methyl hexadecanoate]
Settings | vapor or sublimation pressure [kPa]
373.15 K | 0.0158 ± 0.0008
383.15 K | 0.0294 ± 0.0012
393.15 K | 0.0535 ± 0.002
403.15 K | 0.095 ± 0.003
413.15 K | 0.1644 ± 0.0055
423.15 K | 0.2789 ± 0.009
433.15 K | 0.4635 ± 0.015
443.15 K | 0.756 ± 0.01
453.15 K | 1.21 ± 0.016

CCCCCCCCCCCCCC(=O)OC [methyl tetradecanoate]
Settings | vapor or sublimation pressure [kPa]
353.15 K | 0.0133 ± 0.0007
363.15 K | 0.0267 ± 0.0011
373.15 K | 0.0516 ± 0.0019
383.15 K | 0.0959 ± 0.0034
393.15 K | 0.1723 ± 0.0057
403.15 K | 0.3003 ± 0.0096
413.15 K | 0.509 ± 0.016
423.15 K | 0.839 ± 0.011
433.15 K | 1.35 ± 0.01
443.15 K | 2.123 ± 0.013
453.15 K | 3.27 ± 0.016

CCCCCCCCCCCCCC [tetradecane]
Settings | vapor or sublimation pressure
351.75 K | 0.124 ± 0.004 kPa
353.15 K | 0.1355 ± 0.0046 kPa and 0.1354 ± 0.0046 kPa
361.8 K | 0.232 ± 0.008 kPa
361.89 K | 0.232 ± 0.008 kPa
363.15 K | 0.2517 ± 0.0081 kPa
371.91 K | 0.422 ± 0.013 kPa
373.15 K | 0.4469 ± 0.014 kPa and 0.4472 ± 0.014 kPa
381.93 K | 0.717 ± 0.009 kPa
382.07 K | 0.716 ± 0.009 kPa
383.15 K | 0.762 ± 0.01 kPa and 0.763 ± 0.01 kPa
391.95 K | 1.186 ± 0.015 kPa
392 K | 1.186 ± 0.015 kPa
393.15 K | 1.254 ± 0.016 kPa and 1.255 ± 0.016 kPa
402.74 K | 1.947 ± 0.013 kPa
403.15 K | 1.998 ± 0.013 kPa
412.69 K | 3.029 ± 0.016 kPa
413.15 K | 3.09 ± 0.016 kPa and 3.086 ± 0.016 kPa
422.55 K | 4.545 ± 0.021 kPa
423.15 K | 4.652 ± 0.021 kPa and 4.642 ± 0.021 kPa
432.39 K | 6.661 ± 0.028 kPa
433.15 K | 6.836 ± 0.029 kPa and 6.812 ± 0.028 kPa
442.49 K | 9.461 ± 0.041 kPa
443.15 K | 9.776 ± 0.042 kPa
452.49 K | 13.46 ± 0.053 kPa
453.15 K | 13.75 ± 0.054 kPa
